The source of these data is patent US9733187B2, “Method of detecting bladder cancer by optical analysis of bodily fluids” (KING SAUD UNIVERSITY, priority 2015, dated 2017).

The structures appear in SMILES notation.

Data set [1] can be described thus: Porphyrin elimination after oral administration of 5-aminolevulinic acid. It is filed as in vivo.
Method: The patient is administered 5-aminolevulinic acid (also referred to as 8-aminolevulinic acid), which is the first compound in the porphyrin synthesis pathway (i.e., the pathway that leads to heme in mammals). The 5-aminolevulinic acid is preferably administered orally at a dosage of approximately 5 mg of 5-aminolevulinic acid per kilogram of the patient's body weight. The patient can drink water upon taking the 5-aminolevulinic acid. The patient can wait approximately eight hours before urinating.
Approximately eight hours after oral administration of the 5-aminolevulinic acid, a bodily fluid sample is collected from the patient, and this bodily fluid sample is optically analyzed to measure a concentration of porphyrin therein. Preferably, multiple bodily fluid samples are taken at two hour intervals (i.e., one initial sample at the time of administration, and then subsequent samples taken at two hours, four hours, six hours and eight hours after administration). The bodily fluid being analyzed may be urine and/or blood.
Porphyrin is synthesized by the 5-aminolevulinic acid which is administered to the patient.
The conditions of data set [2]: porphyrin synthesized from administered 5-aminolevulinic acid; cited from earlier work.

With `C1=Cc2cc3ccc(cc4nc(cc5ccc(cc1n2)[nH]5)C=C4)[nH]3` [Porphyrin, porphyrin], the porphyrin retention time result in data set [1] (bladder cancer patients) was “up to eight”. The “porphyrin eliminated through urine” value in data set [1] (healthy person, after four hours following administration of 5-aminolevulinic acid) was “approximately 90%”. Besides, in data set [2], the half-life result was “approximately two”.
